According to patent US20220054640A1, “COMPOSITIONS AND METHODS FOR THE DELIVERY OF THERAPEUTIC AGENTS ACROSS THE ROUND WINDOW MEMBRANE” (Decibel Therapeutics, Inc., priority 2018, published 2022):
Where two headings read alike, the source gives them in different places. Ends that are not written are not given here. Peptide text beside a SMILES is read from it.

What was measured:
[1] = system: guinea pig RWM; assay: RWM integrity after in vivo application; conditions: 21 days post trans-tympanic injection, 0.1% peptide HCl salt
Procedure: To assess the capacity for the RWM to recover after application of the […] peptide we record ABR thresholds with and without application of a 50 μL formulation including 0.1% […].HCL to the guinea pig RWM via trans-tympanic injection. […] Post-injection (21 days), the guinea pigs in both the […] exposed and control groups were sacrificed, and the temporal bone was removed as described in Example 5, section (a).

[2] = ABR/hearing testing; format: in vivo, guinea pig
Procedure: Prior to ABR recording, the tympanic membrane was inspected for otitis media using a surgical microscope. Animals with otitis media were excluded from the analysis. A TDT RZ6 system was used to record the auditory brainstem response (ABR). Animals were anaesthetized with zoletil (20 mg/kg, I.M.) and placed in a soundproof chamber. Three stainless needle recording electrodes were inserted just under the skin and connected to the appropriate input on the PA4LI low impedance headstage: Channel 1: Ipsilateral ear (same side as stimulus delivery); Reference: contralateral ear; Ground: Vertex (base of skull). A computer-controlled TDT RZ6 System was used to generate the auditory pure tone and power amplified before fed to a closed-field speaker to deliver sound stimuli. The same pure tone stimuli were repeated 512 times, the sound pressure levels were increased in a step of 10 dB SPL (5 dB around threshold) from 20 dB SPL to 90 dB SPL after every 512 repeated trials. The lowest sound level which induced a brainstem response was regarded as the threshold. The hearing thresholds were measured at 4, 24, and 32 kHz. ABR recording was performed before surgery or dosing and on the 7th and 14th day after the formulation dosing. The ABR was recorded first from the left ear and then from the right ear.

[3] = guinea pig, not told
[4] = cochlear perilymph exposure upon intratympanic administration; conditions: NT-3 formulation with permeation enhancer (peptide 1%)
[5] = system: round window membrane; assay: in vitro permeability assay (apparent permeability, flux); format: in vitro ADME; conditions: NT-3 incubated with 1% peptide; for NT-3 apparent permeability (Papp) compared to control: FIG. 22
Procedure: To this end, an in vitro permeability assay was designed to test the apparent permeability of NT-3 against that of other compounds, the experimental design of which is shown in FIG. 1. After the initial formation of tight junctions, which was evaluated using transepithelial electrical resistance (TEER), 100 μL artificial perilymph (AP+) with API was added to the insert, and 500 μL AP+ was added to the bath. Cultures were incubated at 37° C. and 20 μL samples were collected at various time points.
(§1) To further characterize the effects of peptide (XVI), the in vitro permeability assay was used to evaluate administration of NT-3 in either vehicle or 1% of peptide (XVI), as depicted in FIG. 18. In this experiment, cultures were incubated at 37° C. and 50 μL samples were collected at various time points. After 3.5 hours of incubation, the top and bottom media were collected separately and the insert was fixed for immunohistochemical staining to evaluate tight and adherens junctions.

[6] = system: tight and adherens junctions; assay: immunohistochemical staining of tight and adherens junctions after the in vitro permeability assay; format: cell-based; conditions: 3.5 hours of incubation at 37° C., NT-3 in vehicle or with 1% peptide
Procedure: as §1

[7] = system: guinea pig RWM; assay: tight junction integrity of excised RWM in ex vivo culture; format: cell-based; conditions: 1% peptide TFA salt in DMEM, 1 hour
Source text: The […] peptide is hypothesized to interfere with cellular tight junctions. To assess if this mechanism is relevant to the RWM, we excise the RWM from adult guinea pigs (Elm Hill Labs, Chelmsford, Mass.) and stain for a variety of adherens and tight junction proteins. To extract the guinea pig RWM, the temporal bone was removed from freshly sacrificed guinea pig tissue and placed in PBS. An incision was then made in the roof of the bulla to expose the cochlea, followed by trimming of the temporal bone, bulla, and middle ear bones to expose the RWM. The round window niche was then removed from the cochlea and then cultured in DMEM with and without 1% […].TFA for 1 hour. This tissue was then fixed in a 4% PFA solution for 30 minutes followed by wash with PBS (3 times, 5-minute incubations). […]

[8] = background statement; cited from earlier work
[9] = background statement, test not described; cited from earlier work
[10] = listed as the peptide represented by formula (XVI)

With `CC(C)C[C@H](NC(=O)[C@H](C)NC(=O)[C@H](CC(C)C)NC(=O)[C@H](CCCCN)NC(=O)[C@H](CC(C)C)NC(=O)[C@H](C)NC(=O)[C@H](CC(C)C)NC(=O)[C@@H](N)CCCCN)C(=O)N[C@@H](CCCCN)C(=O)N[C@@H](C)C(=O)N[C@@H](CC(C)C)C(=O)N[C@@H](CCCCN)C(=O)N[C@@H](CC(C)C)C(=O)N[C@@H](C)C(=O)N[C@@H](C)C(=O)N[C@@H](CC(C)C)C(=O)N[C@@H](CCCCN)C(=O)N[C@@H](CC(C)C)C(=O)N[C@@H](C)C(=O)O` (H-KLALKLALKALKLAALKLA-OH; N-terminus and C-terminus assumed) the “tight junction proteins (actin, ZO-1, alpha-catenin) in RWM” value [1] was “intact”, the “ABR hearing test, change relative to Day 0” value ([2]; 1 μL of 1% (w/v) peptide HCl salt in Poloxamer 407 (20% w/v), His buffer (pH6), Day 14) was “no change relative to Day 0” and the ABR threshold shift ([2]; 50 μL formulation including 0.1% peptide HCl salt, trans-tympanic, 7 and 14 days) was “no noticeable threshold shift”.
For `OCc1ccccc1` [benzyl alcohol, reference compound], the “effect of permeation enhancer on cochlear NT-3 exposure / NT-3 delivery across the round window membrane” value [3] was “incapable of substantially improving NT-3 delivery across the round window membrane”.
For `CC1(C)[C@@H](O[C@H]2O[C@H](C(=O)[O-])[C@@H](O)[C@H](O)[C@H]2O[C@@H]2O[C@H](C(=O)[O-])[C@@H](O)[C@H](O)[C@H]2O)CC[C@]2(C)[C@H]3C(=O)C=C4[C@@H]5C[C@@](C)(C(=O)O)CC[C@]5(C)CC[C@@]4(C)[C@]3(C)CC[C@@H]12.[K+].[K+]` [dipotassium glycyrrhizinate], the “effect of permeation enhancer on cochlear NT-3 exposure / NT-3 delivery across the round window membrane” value [4] was “incapable of substantially improving NT-3 delivery across the round window membrane”.
For `CC(=O)NC(CCCCN)C(=O)NC(CC(C)C)C(=O)NC(C)C(=O)NC(CC(C)C)C(=O)NC(CCCCN)C(=O)NC(CC(C)C)C(=O)NC(C)C(=O)NC(CC(C)C)C(=O)NC(CCCCN)C(=O)NC(C)C(=O)NC(CC(C)C)C(=O)NC(CCCCN)C(=O)NC(CC(C)C)C(=O)NC(C)C(=O)NC(C)C(=O)NC(CC(C)C)C(=O)NC(CCCCN)C(=O)NC(CC(C)C)C(=O)NC(C)C(N)=O` (centres unmarked) [peptide (XVI)] (Ac-KLALKLALKALKLAALKLA-NH2; configuration not given here), the “NT-3 flux compared to control” value ([5]; FIG. 21) was “greater flux”, the “NT-3 apparent permeability (Papp) compared to control” value [5] was “greater” and the “NT-3 apparent permeability (Papp) compared to control” value [5, 10] was “increased NT-3 permeability”. The “cell junction appearance (immunohistochemical staining)” value (from here on “cell junction appearance”) [6] was “gaps could be observed between cells” and the “cell junction appearance” value [6, 10] was “gaps were observed between cells”.
For “KLALKLALKALKLAALKLA.TFA (also: TFA salt)”, the “junction protein structure in RWM” value [7] was “disrupts occludin, ZO-1, and alpha-catenin, but not actin (as imaged via phalloidin), or beta-catenin structure”.
In the case of neurotrophin-3 [NT-3], the pI [8] is listed as 9.5, the “cell junction appearance” value [6] is listed as “adherens junctions appeared normal” and the EC50 [9] is listed as “less than 20 ng/ml”.
